Data from patent publication US20240327392A1, “HETEROCYCLOALKYL-SUBSTITUTED POLYHETEROAZOLE DERIVATIVES AS MEDICAMENTS FOR TREATING AND/OR PREVENTING RS VIRUS INFECTIONS” (ALBIUS SCIENCES ALPHA PRIVATE LIMITED, priority 2021, published 2024).

What follows are molecules tested on human RS virus A2 strain (assay: In vitro test for anti-RS virus proliferation inhibitory activity (quantitative RT-PCR of RS virus RNA copy number in infected Vero cells)). Conditions: 72 h; Vero cells infected with human RS virus A2 strain, 3 days of incubation, RS virus N gene RNA copy number by quantitative RT-PCR; read-out: Anti-RS virus Activity.
Assay type: cell-based
In short: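 Vero cells infected with RSV A2 (1.7×10^4 TCID50/mL in inoculum mix) with compound in 10% FCS EMEM, 3 days at 37 °C, 5% CO2. Lysate viral N-gene RNA quantified by one-step SYBR qRT-PCR; copy number by comparative Ct relative to untreated infected cells.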

IC50 [µM] | SMILES
10 to 50 | O=S(=O)(Cc1ccccc1)N1C[C@H](O)C[C@H]1c1nc(CCCc2ccccc2)no1 [Compound 3E, 3-(3-phenylpropyl)-5-[(2S,4R)-1-benzylsulfonyl-4-hydroxypyrrolidin-2-yl]-1,2,4-oxadiazole]
10 to 50 | O=S(=O)(Cc1ccccc1)N1CCC[C@H]1c1nc(CCCc2ccccc2)no1 [Compound 1E, 3-(3-phenylpropyl)-5-[(2S)-1-benzylsulfonylpyrrolidin-2-yl]-1,2,4-oxadiazole]
> 50 | NC(=O)c1ccc2cc(C(=O)N3C[C@H](O)C[C@H]3c3nc(CCCc4ccccc4)no3)ccc2c1 [Compound 4-5]

SMILES | IC50 [µM]
CC(C)(C)OC(=O)N1C[C@H](O)C[C@H]1c1nc(CCCc2ccccc2)no1 [Compound 3-1, 3-(3-phenylpropyl)-5-[(2S,4R)-1-tert-butoxycarbonyl-4-hydroxypyrrolidin-2-yl]-1,2,4-oxadiazole] | > 50

Same assay, conditions: 72 h; Vero cells infected with human RS virus A2 strain, 3 days of incubation, RS virus RNA copy number by quantitative RT-PCR; read-out: Anti-RS virus Activity

SMILES | IC50 [µM]
O=S(=O)(N1CCOCC1)N1CC(CC2CCC2)CC1c1nc(CCCc2ccccc2)no1 (stereo not drawn) [Compound 6AE, 4-((4-(cyclobuthylmethyl)-2-(3-(3-phenylpropyl)-1,2,4-oxadiazole-5-yl)pyrrolidin-1-yyl)sulfonyl)morpholine] | 10 to 50
O=S(=O)(N1CCCCC1)N1CC(CC2CCC2)CC1c1nc(CCCc2ccccc2)no1 (stereo not drawn) [Compound 6AD, 5-(4-(cyclobuthylmethyl)-1-(piperidin-1-ylsulfonyl)pyrrolidin-2-yl)-3-(3-phenylpropyl)-1,2,4-oxadiazole] | 10 to 50
CC(C)(C)OC(=O)N1CCCC[C@H]1c1noc(CCCc2ccccc2)n1 [Compound C3-16-1, Tert-butyl (S)-2-(5-(3-phenylpropyl)-1,2,4-oxadiazol-3-yl) piperidine-1-carboxylate] | < 10
CC(C)NC(=O)N1CCC[C@H]1c1nc(CCCc2ccccc2)no1 [Compound 1G, (S)—N-isopropyl-2-(3-(3-phenylpropyl)-1,2,4-oxadiazol-5-yl)pyrrolidine-1-carboxamide] | > 50
CN(C)c1cccc2c(S(=O)(=O)N3CC(CC4CCC4)CC3c3nc(CCCc4ccccc4)no3)cccc12 (stereo not drawn) [Compound 6AL, 5-((4-(cyclobuthylmethyl)-2-(3-(3-phenylpropyl)-1,2,4-oxadiazole-5-yl)pyrrolidin-1-yl)sulfonyl)-N,N-dimethylnaphthalen-1-amine] | < 10
O=S(=O)(c1ccccc1)N1CC(CC2CCC2)CC1c1nc(CCCc2ccccc2)no1 (stereo not drawn) [Compound 6D, 3-(3-phenylpropyl)-5-(1-benzenesulfonyl-4-cyclobutylmethylpyrrolidin-2-yl)-1,2,4-oxadiazole] | < 10
O=C(Cc1ccccc1)N1CCC[C@H]1c1nc(CCCc2ccccc2)no1 [Compound 1P, (S)-2-Phenyl-1-(2-(3-(3-phenylpropyl)-1,2,4-oxadiazol-5-yl)pyrrolidin-1-yl) ethan-1-one] | < 10
O=C(Oc1ccccc1)N1CCC[C@H]1c1nc(CCCc2ccccc2)no1 [Compound 1M, Phenyl (S)-2-(3-(3-phenylpropyl)-1,2,4-oxadiazol-5-yl)pyrrolidine-1-carboxylate] | 10 to 50
CS(=O)(=O)N1CC2(CC2)C[C@H]1c1nc(CCCc2ccccc2)no1 [Compound 5C, 3-(3-phenylpropyl)-5-{(6S)-5-methanesulfonyl-5-azaspiro[2.4]hept-6-yl}-1,2,4-oxadiazole] | > 50
CC(C)(C)OC(=O)N1CCC(CS(=O)(=O)N2CC3(CC3)C[C@H]2c2nc(CCCc3ccccc3)no2)CC1 [Compound 5AN, tert-buthyl (S)-4-(((6-(3-(3-phenylpropyl)-1,2,4-oxadiazole-5-yl)-5-azaspiro[2.4]heptan-5-yl)sulfonyl)methyl)piperidin-1-carboxylate] | < 10
COc1ccc(S(=O)(=O)N2CC(CC3CCC3)CC2c2nc(CCCc3ccccc3)no2)cc1 (stereo not drawn) [Compound 6AI, 5-(4-(cyclobuthylmethyl)-1-((4-methoxyphenyl)sulfonyl)pyrrolidin-2-yl)-3-(3-phenylpropyl)-1,2,4-oxadiazole] | < 10
O=C(C1CCCCC1)N1CCCC[C@H]1c1nc(CCCc2ccccc2)no1 [Compound 2Y, (S)-cyclohexyl(2-(3-(3-phenylpropyl)-1,2,4-oxadiazol-5-yl)piperidin-1-yl)methanone] | < 10
CC(C)(C)OC(=O)N1C[C@H](c2ccccc2)C[C@H]1c1nc(Cc2ccccc2)no1 [Compound C1-7-1, Tert-butyl (2S,4S)-2-(3-benzyl-1,2,4-oxadiazol-5-yl)-4-phenylpyrrolidine-1-carboxylate] | < 10
CC(C)(C)OC(=O)N1CCC(S(=O)(=O)N2CC(CC3CCC3)CC2c2nc(CCCc3ccccc3)no2)CC1 (stereo not drawn) [Compound 6AO] | > 50
CC(C)(C)OC(=O)N1CCCC[C@H]1c1noc(CCc2ccccc2)n1 [Compound C2-16-1, Tert-butyl (S)-2-(5-phenethyl-1,2,4-oxadiazol-3-yl) piperidine-1-carboxylate] | 10 to 50

Other lines, results leading:

IC50 [µM] | SMILES
10 to 50 | COC(=O)c1nc([C@@H]2CCCCN2S(=O)(=O)C2CCCCC2)oc1C [Compound 32B, Methyl (S)-2-(1-(cyclohexylsulfonyl)piperidin-2-yl)-5-methyloxazole-4-carboxylate]
< 10 | CC(C)(C)OC(=O)N1CCCC[C@H]1c1nnc(CCc2ccccc2)o1 [Compound 17-1, Tert-butyl (S)-2-(5-phenethyl-1,3,4-oxadiazol-2-yl) piperidine-1-carboxylate]
< 10 | CC(C)(C)OC(=O)N1CC(CS(=O)(=O)N2C[C@H](c3ccccc3)C[C@H]2c2nc(CCCc3ccccc3)no2)C1 [Compound 7AM, tert-buthyl 3-((((2S,4S)-4-phenyl2-(3-(3-phenylpropyl)-1,2,4-oxadiazole-5-yl)pyrrolidin-1-yl)sulfonyl)methyl)azetidin-1-carboxylate]
< 10 | O=S(=O)(c1ccc(F)cc1)N1CCC[C@H]1c1cn(Cc2ccccc2)nn1 [Compound 39AJ, (S)-1-Benzyl-4-(1-((4-fluorophenyl)sulfonyl)pyrrolidin-2-yl)-1H-1,2,3-triazole]
10 to 50 | O=S(=O)(c1ccccc1)N1C[C@H](F)C[C@H]1c1nc(CCCc2ccccc2)no1 [Compound 8D, 3-(3-phenylpropyl)-5-[(2S,4R)-1-benzenesulfonyl-4-fluoropyrrolidin-2-yl]-1,2,4-oxadiazole]
10 to 50 | O=S(=O)(N1CCCCC1)N1C[C@H](c2ccccc2)C[C@H]1c1nc(CCCc2ccccc2)no1 [Compound 7AD]
< 10 | COc1ccc(S(=O)(=O)N2C[C@H](c3ccccc3)C[C@H]2c2nc(CCCc3ccccc3)no2)cc1 [Compound 7AI, 5-((2S,4S)-1-((4-methoxyphenyl)sulfonyl)-4-phenylpyrrolidin-2-yl)-3-(3-phenylpropyl)-1,2,4-oxadiazole]

Same assay, conditions: Vero, 72 h, read-out: Anti-RS virus Activity

SMILES | IC50 [µM]
S=C(NCc1ccccc1)N1C[C@H](c2ccccc2)C[C@H]1c1nc(CCCc2ccccc2)no1 [Compound 7AR, (2S,4S)—N-Benzyl-4-phenyl-2-(3-(3-phenylpropyl)-1,2,4-oxadiazol-5-yl) pyrrolidine-1-carbothioamide] | 10 to 50
